# Reference: ChEMBL document CHEMBL1146379, “Solid phase synthesis and SAR of small molecule agonists for the GPR40 receptor” (Bioorg Med Chem Lett, 2007)
# Tests used:
# [1] = molecular target: Prostaglandin E2 receptor EP4 subtype (Homo sapiens, UniProt P35408); test: Activity at EP4 receptor
# [2] = molecular target: T1, Free fatty acid receptor 3 (Homo sapiens, UniProt O14843); test: Activity at GPR41 receptor
# T1 sequence (O14843 whole entry): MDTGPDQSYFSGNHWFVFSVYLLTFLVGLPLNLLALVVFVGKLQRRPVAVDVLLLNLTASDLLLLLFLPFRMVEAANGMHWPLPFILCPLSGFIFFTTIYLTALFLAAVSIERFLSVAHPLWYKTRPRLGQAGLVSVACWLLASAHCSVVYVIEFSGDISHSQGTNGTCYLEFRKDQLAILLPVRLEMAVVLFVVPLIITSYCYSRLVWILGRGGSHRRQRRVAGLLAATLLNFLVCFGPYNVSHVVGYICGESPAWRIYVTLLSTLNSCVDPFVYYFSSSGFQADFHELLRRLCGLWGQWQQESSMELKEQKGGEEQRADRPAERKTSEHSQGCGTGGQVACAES
# [3] = organism: Homo sapiens; test: Selectivity for GPR40 over GPR41
# [4] = test system: Liver microsomes; test: Intrinsic clearance in human liver microsomes; assay type: ADME, Microsome
# [5] = molecular target: Cytochrome P450 3A4 (Homo sapiens, UniProt P08684); test: Inhibition of CYP3A4; assay type: ADME
# Sequence of Cytochrome P450 3A4 (P08684 whole entry): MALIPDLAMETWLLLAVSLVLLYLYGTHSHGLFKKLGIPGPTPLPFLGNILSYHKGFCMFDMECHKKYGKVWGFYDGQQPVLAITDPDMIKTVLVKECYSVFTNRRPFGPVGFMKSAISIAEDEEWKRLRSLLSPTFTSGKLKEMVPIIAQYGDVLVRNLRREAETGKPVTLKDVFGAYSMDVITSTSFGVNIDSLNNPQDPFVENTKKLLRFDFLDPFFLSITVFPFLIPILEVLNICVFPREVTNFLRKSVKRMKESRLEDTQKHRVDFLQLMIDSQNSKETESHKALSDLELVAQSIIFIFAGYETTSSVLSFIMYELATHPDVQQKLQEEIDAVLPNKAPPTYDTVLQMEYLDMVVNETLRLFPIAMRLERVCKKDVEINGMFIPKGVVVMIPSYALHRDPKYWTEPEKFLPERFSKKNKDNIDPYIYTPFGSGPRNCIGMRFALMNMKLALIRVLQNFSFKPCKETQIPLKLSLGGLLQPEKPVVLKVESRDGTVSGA
# [6] = Solubility at pH 7.4; assay type: physicochemical; conditions: buffer
# [7] = molecular target: T2, Prostaglandin E2 receptor EP3 subtype (Homo sapiens, UniProt P43115); test: Activity at EP3 receptor
# T2 sequence (P43115 whole entry): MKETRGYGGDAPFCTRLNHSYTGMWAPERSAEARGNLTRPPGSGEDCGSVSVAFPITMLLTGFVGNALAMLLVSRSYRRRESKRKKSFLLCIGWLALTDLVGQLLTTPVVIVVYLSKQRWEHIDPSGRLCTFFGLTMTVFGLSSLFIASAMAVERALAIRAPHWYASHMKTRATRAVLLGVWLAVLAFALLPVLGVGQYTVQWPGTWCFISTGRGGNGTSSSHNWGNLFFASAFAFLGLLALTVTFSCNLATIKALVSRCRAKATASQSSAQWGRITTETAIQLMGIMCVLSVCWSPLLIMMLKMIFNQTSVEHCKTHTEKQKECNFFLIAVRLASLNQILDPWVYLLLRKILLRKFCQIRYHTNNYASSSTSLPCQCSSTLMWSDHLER
# [8] = molecular target: Sphingosine 1-phosphate receptor 1 (Homo sapiens, UniProt P21453); test: Activity at S1P1 receptor
# Sequence of Sphingosine 1-phosphate receptor 1 (P21453 whole entry): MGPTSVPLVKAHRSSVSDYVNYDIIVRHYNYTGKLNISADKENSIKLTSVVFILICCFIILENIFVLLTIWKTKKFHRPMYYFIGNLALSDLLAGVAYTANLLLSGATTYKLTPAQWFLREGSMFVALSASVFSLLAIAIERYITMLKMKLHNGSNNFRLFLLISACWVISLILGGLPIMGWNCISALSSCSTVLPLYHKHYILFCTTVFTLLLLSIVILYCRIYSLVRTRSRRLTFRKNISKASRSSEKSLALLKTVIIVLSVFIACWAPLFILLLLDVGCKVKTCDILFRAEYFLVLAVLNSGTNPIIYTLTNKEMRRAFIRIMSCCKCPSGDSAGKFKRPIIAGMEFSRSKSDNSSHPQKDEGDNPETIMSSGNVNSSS
# [9] = molecular target: T3, Prostaglandin E2 receptor EP1 subtype (Homo sapiens, UniProt P34995); test: Activity at EP1 receptor
# T3 sequence (P34995 whole entry): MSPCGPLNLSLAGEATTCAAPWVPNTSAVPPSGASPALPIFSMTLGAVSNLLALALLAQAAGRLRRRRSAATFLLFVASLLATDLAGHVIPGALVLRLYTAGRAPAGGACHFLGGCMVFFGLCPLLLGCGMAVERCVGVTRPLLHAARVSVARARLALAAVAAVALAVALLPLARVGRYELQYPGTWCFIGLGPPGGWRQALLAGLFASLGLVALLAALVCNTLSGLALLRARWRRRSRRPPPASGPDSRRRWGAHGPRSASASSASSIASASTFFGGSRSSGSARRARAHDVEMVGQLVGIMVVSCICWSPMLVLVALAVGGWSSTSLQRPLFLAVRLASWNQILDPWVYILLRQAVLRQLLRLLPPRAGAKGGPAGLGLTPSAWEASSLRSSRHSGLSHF
# [10] = Permeability in MDCK cells expressing low Pgp; assay type: ADME, cell-based, Canis lupus familiaris; conditions: dog, MDCK type I; read-out: permeability
# [11] = Protein binding in rat plasma by ultrafiltration assay; assay type: ADME, cell-free; conditions: read-out: PB
# [12] = Half life in iv dosed rat; assay type: ADME, organism-based; conditions: in vivo
# [13] = organism: Homo sapiens; test: Selectivity for GPR40 over GPR43
# [14] = molecular target: Cytochrome P450 2C9 (Homo sapiens, UniProt P11712); test: Inhibition of CYP2C9; assay type: ADME
# Sequence of Cytochrome P450 2C9 (P11712 whole entry): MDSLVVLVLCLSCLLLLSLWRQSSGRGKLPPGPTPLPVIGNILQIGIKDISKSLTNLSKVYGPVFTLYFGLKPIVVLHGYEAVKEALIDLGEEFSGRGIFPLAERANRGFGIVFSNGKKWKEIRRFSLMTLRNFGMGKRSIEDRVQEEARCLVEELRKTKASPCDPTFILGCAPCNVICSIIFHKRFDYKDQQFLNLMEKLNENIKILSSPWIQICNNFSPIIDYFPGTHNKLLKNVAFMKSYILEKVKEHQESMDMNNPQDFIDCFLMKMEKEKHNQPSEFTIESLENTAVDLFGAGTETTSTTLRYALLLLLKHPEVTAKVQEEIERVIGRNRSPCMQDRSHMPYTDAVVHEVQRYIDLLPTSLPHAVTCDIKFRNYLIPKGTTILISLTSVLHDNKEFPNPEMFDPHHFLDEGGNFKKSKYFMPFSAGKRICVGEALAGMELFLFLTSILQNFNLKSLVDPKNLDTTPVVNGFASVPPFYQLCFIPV
# [15] = molecular target: Free fatty acid receptor 1 (Homo sapiens, UniProt O14842); test: Agonist activity at GPR40 receptor; assay type: functional
# Sequence of Free fatty acid receptor 1 (O14842 whole entry): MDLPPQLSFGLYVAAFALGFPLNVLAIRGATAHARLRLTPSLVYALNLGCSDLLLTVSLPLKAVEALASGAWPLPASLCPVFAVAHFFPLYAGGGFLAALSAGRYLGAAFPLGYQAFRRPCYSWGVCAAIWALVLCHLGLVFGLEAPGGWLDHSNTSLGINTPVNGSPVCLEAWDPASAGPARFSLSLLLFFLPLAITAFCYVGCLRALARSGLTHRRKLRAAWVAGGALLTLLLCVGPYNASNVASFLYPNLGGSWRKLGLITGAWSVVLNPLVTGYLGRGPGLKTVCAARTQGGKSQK
# Sequence of Prostaglandin E2 receptor EP4 subtype (P35408 whole entry): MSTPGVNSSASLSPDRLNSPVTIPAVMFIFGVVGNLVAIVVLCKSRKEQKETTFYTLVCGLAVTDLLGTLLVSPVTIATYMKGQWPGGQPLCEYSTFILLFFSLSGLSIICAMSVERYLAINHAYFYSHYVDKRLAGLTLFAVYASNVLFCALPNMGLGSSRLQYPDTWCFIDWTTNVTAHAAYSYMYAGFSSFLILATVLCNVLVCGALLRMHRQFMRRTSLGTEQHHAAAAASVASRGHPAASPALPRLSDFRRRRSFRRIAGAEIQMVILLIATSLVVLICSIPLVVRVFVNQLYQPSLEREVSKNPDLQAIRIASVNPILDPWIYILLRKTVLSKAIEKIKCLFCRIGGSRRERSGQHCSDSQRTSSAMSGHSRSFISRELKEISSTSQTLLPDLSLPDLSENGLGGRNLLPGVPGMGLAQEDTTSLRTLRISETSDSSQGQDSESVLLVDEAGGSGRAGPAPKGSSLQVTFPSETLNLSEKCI
structure (smiles),measurement,setting,value
O=C(O)CCc1ccc(NCc2cccc(Oc3ccccc3)c2)cc1 [GW9508],Ki,[1],> 3.16 µM
same,EC50,[2],> 50.1 µM
same,Fold change,[3],500
same,CL,[4],0.74 mL/min/g
same,IC50,[5],> 33 µM
same,solubility,[6],290 µg/mL
same,Ki,[7],398 nM
same,EC50,[8],> 31.6 µM
same,Ki,[9],> 1580 nM
same,Papp,[10],59.9 ×10⁻⁶ cm/s
same,fraction unbound,[11],< 0.004
same,half-life,[12],318 min
same,Fold change,[13],> 500
same,IC50,[14],> 33 µM
same,EC50,[15],79.4 nM
